Molecules are shown by their SMILES. Where two headings read alike, the source gives them in different places.

One assay deals with T1, σ2 receptor (Rattus norvegicus, UniProt Q5U3Y7).
T1 construct: from tissue; host or cells: rat liver membrane homogenates
T1 sequence (Q5U3Y7 1-176): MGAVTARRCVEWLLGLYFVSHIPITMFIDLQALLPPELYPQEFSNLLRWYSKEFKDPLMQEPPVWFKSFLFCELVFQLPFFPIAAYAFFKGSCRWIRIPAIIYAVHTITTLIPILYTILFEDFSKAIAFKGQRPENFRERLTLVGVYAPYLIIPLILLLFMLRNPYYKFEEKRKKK
As to the kind of experiment: σ2 receptor binding assay, [3H]DTG or [3H]RHM-1. The following applies: for σ1/σ2 Ratio: Ki for σ1/Ki for σ2.

The target of a further assay is σ1 receptor (Cavia porcellus, UniProt Q60492). Nature of the assay: σ1 receptor binding assay, [3H](+)-pentazocine. The following applies: as listed in Table 2.
Chain of σ1 receptor (Q60492 whole entry): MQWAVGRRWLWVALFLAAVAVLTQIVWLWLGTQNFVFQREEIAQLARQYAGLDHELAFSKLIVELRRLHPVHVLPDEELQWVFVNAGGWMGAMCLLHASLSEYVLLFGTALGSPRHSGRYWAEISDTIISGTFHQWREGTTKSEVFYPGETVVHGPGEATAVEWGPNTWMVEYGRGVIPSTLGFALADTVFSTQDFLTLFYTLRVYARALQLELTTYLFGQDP
The subject of assay [1] is EMT-6 cells. Nature of the assay: Annexin V labeling by flow cytometry in EMT-6 cells. Format: cell-based, mouse. From the text: (§1) Detection and quantification of apoptosis by flow cytometry. The early stages of apoptosis are characterized by translocation of phosphatidyl serine (PS) from the inner surface of the plasma membrane to the outer surface of the membrane. Annexin V, a protein with high affinity for PS, was used to detect the externalization of PS. In these experiments cell death was quantified flow cytometrically using both an annexin V assay (Apoptosis Detection Kit, R &D Systems, Minneapolis, Minn.) and a TUNEL assay (Apodirect Kit, BD Biosciences Pharmingen, San Diego, Calif.). All of the data was collected and analyzed using a FACS scan flow cytometer (Becton Dickinson, Fullerton, Calif.).
An early step in the induction of apoptosis is the membrane inversion of phosphatidyl serine (PS), which can be detected by the binding of annexin V to the cell surface. In early apoptosis, the cell membrane integrity is still intact, and the fluorescent marker, 7AAD, is excluded from the cell. Therefore, early apoptotic cells are annexin V positive and 7AAD negative. As apoptosis progresses, the cell membrane integrity is lost, and the cells become annexin V positive and 7AAD positive. EMT-6 cells treated with WC-II-26, SV119, and RHM-1-138 were analyzed by flow cytometry, and both early apoptotic death and late apoptotic death were detected after treatment with these three σ2 selective ligands (FIG. 7A). The percentage of EMT-6 cells with positive annexin V staining was 96.6±2.7%, 73.5±2.4%, and 48±6.4% after treatment with WCII-26, SV119 and RHM-I-138, respectively (FIG. 7B).
(In flow cytometry, cells or beads pass a laser one at a time.)

For assay [2], the system named is EMT-6 cells. Nature of the assay: TUNEL staining of DNA fragmentation in EMT-6 cells (microscopy, flow cytometry). Format: cell-based, mouse. The following applies: for TUNEL positive cells (flow cytometry): untreated control 2%; for DNA fragmentation, TUNEL staining in nuclei (fluorescence microscopy): EMT-6, WC-II-26 40 μM 48 h, SV119 100 μM 16 h, RHM-I-138 40 μM 16 h. As for the experimental part: Detection of apoptosis by fluorescence microscopy. The DNA fragmentation occurring during apoptosis was detected by the TUNEL staining method using the in situ cell death detection kit purchased from Roche Applied Science (Indianapolis, Ind.). Briefly, after treatment of EMT-6 cells with the sigma ligands, cells were fixed for 1 hour with 4% paraformaldehyde in phosphate buffered saline at room temperature and permeabilized with 0.1% Triton X-100 for 2 minutes on ice. The cells were then labeled by incubation with the TUNEL reaction mixture for 1 hour at 37° C. and analyzed using a Nikon inverted fluorescence microscope with a FITC filter.
as §1
To determine if the mechanism by which our σ2 selective ligands kill EMT-6 cells involves apoptosis, cells incubated with σ2 ligands were assayed by the TUNEL method. […] In these experiments, DNA fragmentation was detected by TUNEL staining and fluorescence microscopy (FIG. 6). Panel A: untreated cells. Panel B: Cells treated for 48 h with WC-II-26 (40 μM). Panel C: Cells treated for 16 h with SV119 (100 μM). Panel D: Cells treated for 16 h with RHM-I-138 (40 μM). […] At the designated times after treatment with WC-II-26, SV119 and RHM-I-138, TUNEL positive cells increased from 2% for the untreated control cells to 46%, 37% and 40%, respectively (FIG. 6B).

Another assay concerns caspase-3/7. As to the kind of experiment: Caspase-3/7 whole cell assay in MDA-MB-435 cells. The class given is cell-based, human. The following applies: MDA-MB-435, 24 h. As for the experimental part:
FIG. 8 illustrates activation of caspase-3/7 in EMT-6 cells treated with the sigma-2 selective ligands, WC-II-26, SV119, or RHM-I-138. EMT6 cells were treated for 24 h with concentrations of 40 μM. MDA-MB-435 cells were treated with varying concentrations of sigma-2 selective ligands for 24 h. The highest level of caspase-3/7 activity was detected after 24 h in the presence of 80 μM SV119, 80 μM WC-II-26, and 50 μM RHM-I-138. The data are the mean±1 SEM of three independent experiments. p<0.05; * compared to the control.
Detection of intracellular cellular caspase-3/7 activity. The activation of endogenous caspase-3/7 by the sigma ligands was measured using the CellProbe HT caspase-3/7 whole cell assay (Beckman Coulter, Fullerton, Calif.). The cell permeable, nonfluorescent bisamide substrate, Z-DEVD-R110, was added to the intact cells to detect apoptosis. Upon specific cleavage by caspase-3/7, Z-DEVD-R110 is converted to a fluorescent compound, and the fluorescent signal can be measured as follows. After adding the substrate, Z-DEVD-R110, to the cells treated with a sigma ligand, the plate was incubated for an additional 1.5-2 hour, and the resulting fluorescence measured using a Victor 3 microplate fluorometer at excitation and emission wavelengths of 485 nm and 535 nm, respectively.

Assay [3] deals with EMT-6 cells. Nature of the assay: Cytotoxicity assay (MTS) in EMT-6 cells. The class given is cell-based, mouse.
Protocol: Cell culture conditions. EMT-6 mouse breast tumor cells^39 were cultured in DMEM supplemented with 10% fetal bovine serum. The cells were maintained at 37° C. in a humidified incubator with a 5% CO2/95% air atmosphere.
Cytotoxicity assay. The cytotoxic effect of the sigma ligands on EMT-6 cells was measured using the MTS colorimetric assay. MTS is bioreduced by cells into a colored formazan product with an absorbance at 490 nm. The quantity of the products is directly proportional to the number of viable cells in the culture. The MTS assay was performed using the CellTiter96Aqueous One Solution Assay (Promega, Madison, Wis.) according to the manufacturer's protocol. Briefly, EMT-6 cells were seeded at 2×10^3/well in 96-well plates on the day prior to treatment with the sigma ligand. Each sigma ligand was first dissolved in DMSO, and then serially diluted to get the desired concentration. The final concentration of DMSO in the cell culture medium was no more than 0.5%. After a 24 hour or 48 hour treatment with the various sigma ligands, cell death was assessed as follows. The CellTiter 96 AQueous One Solution Reagent was added to each well, and the plate was incubated for 2 hours at 37° C. The plate was then read at 490 nm in a Victor 3 plate reader (PerkinElmer Life and Analytical Sciences, Shelton, Conn.).
In these experiments, a number of sigma ligands, having a wide range of affinities for σ1 and σ2 receptors, were evaluated for their efficacy to kill EMT-6 cells. […] Cells were incubated for 24 hours or 48 hours with various concentrations of the sigma ligands. Cytotoxicity and cell viability were quantified using the MTS assay.
The mark [4] stands for this setting: Ki for σ2 (nM), as listed in Table 2.
Where [5] appears, read: Ki σ2, inhibiting binding of [3H]DTG or [3H]RHM-1 to rat liver homogenates, mean ± SEM.
The mark [6] stands for this setting: Mus musculus, EMT6, 24 h, read-out: EC50 (μM, 24 hours), EMT-6, MTS assay, 24 hours.
The mark [7] stands for this setting: Mus musculus, EMT6, 48 h, read-out: EC50 (μM, 48 hours), EMT-6, MTS assay, 48 hours.

Protocol for σ1 receptor: (§2) In vitro binding studies were conducted in order to determine the affinity of the target compounds at σ1 and σ2 receptors.
(§3) In this example, test compounds were dissolved in N,N-dimethylformamide (DMF), dimethylsulfoxide (DMSO) or ethanol and then diluted in 50 mM Tris-HCl, pH 7.4 buffer containing 150 mM NaCl and 100 mM EDTA. Membrane homogenates were made from guinea pig brain for σ1 binding assays and rat liver for σ2 binding assays. Membrane homogenates were diluted with 50 mM Tris-HCl buffer, pH 8.0, and incubated at 25° C. in a total volume of 150 μL in 96-well plates with the radioligand and test compounds with concentrations ranging from 0.1 nM to 10 μM. After incubation was completed, the reactions were terminated by the addition of 150 μL of ice-cold wash buffer (10 mM Tris-HCl, 150 mM NaCl, pH 7.4) using a 96-channel transfer pipette (Fisher Scientific, Pittsburgh, Pa.), and the samples harvested and filtered rapidly through 96-well fiberglass filter plate (Millipore, Billerica, Mass.) that had been presoaked with 100 μL of 50 mM Tris-HCl buffer, pH 8.0, for 1 h. Each filter was washed three times with 200 μL of ice cold wash buffer.
(§4) Ki values were calculated using the method of Cheng and Prusoff20 and represent mean values±SEM.
Protocol for σ2 receptor: as §2, §3, §4

Usually Ki stands for the equilibrium dissociation constant of an inhibitor or competing ligand from its target. For orientation: EC50 means the midpoint of the concentration-response curve. As for `O[C@@H](CN1C2CCC1CC(c1ccccc1)C2)c1cccc(Br)c1` (some centres unmarked) [RHM-I-138], the “σ1/σ2 Ratio” value at σ2 receptor is on record as 44. The Ki on σ2 receptor (setting [4]) turned out to be 12.3 nM; on σ2 receptor (setting [5]), 12.3 nM; at σ1 receptor (read-out: Ki for σ1) it was 544 nM. Moreover, the “percentage of EMT-6 cells with positive annexin V staining” value (shortened to “percentage of EMT-6 cells”) in the assay on EMT-6 cells [1] (40 μM, 16 h) is reported as 48±6.4%. The “TUNEL positive cells (flow cytometry)” value in the assay on EMT-6 cells [2] (EMT-6, 40 μM, 16 h) turned out to be 40%. Further, the “DNA fragmentation, TUNEL staining in nuclei (fluorescence microscopy)” value (“DNA fragmentation, TUNEL staining” for short) in the assay with EMT-6 cells [2] is “positive TUNEL staining”. The “concentration at which the highest level of caspase-3/7 activity was detected” value (from here on “concentration at which the highest level”) with caspase-3/7 was determined as 50 µM. Besides, the concentration for a half-maximal effect (EC50) in the assay with EMT-6 cells [3] (setting [6]) was found to be 32.5 ± 3.5 µM; with EMT-6 cells [3] (setting [7]), 16 µM; in the assay on EMT-6 cells [3] (read-out: EC50 (μM, 48 hours), EMT-6, MTS assay, 48 hours), 16.5 ± 2.1 µM.
As to `COc1ccc(C)cc1NC(=O)OC1CC2CCCC(C1)N2CCCCCCN` (centres unmarked) [SV119], the Ki on σ2 receptor (setting [4]) turned out to be 19.9 nM; on σ1 receptor (Ki for σ1 (nM)), 1450 nM. Further, the “percentage of EMT-6 cells” value with EMT-6 cells [1] (100 μM, 16 h) amounted to 73.5±2.4%. Also, the “TUNEL positive cells (flow cytometry)” value in the assay on EMT-6 cells [2] (EMT-6, 100 μM, 16 h) is 37%. The “DNA fragmentation, TUNEL staining” value with EMT-6 cells [2] is listed as “positive TUNEL staining”. Also, the “concentration at which the highest level” value in the assay with caspase-3/7 was found to be 80 µM. For the same compound, the figures for the EC50 in the assay with EMT-6 cells [3] (setting [6]) and in the assay with EMT-6 cells [3] (setting [7]) were 16 ± 1.4 µM and 11 µM, respectively.
On to `COc1ccc(C)cc1NC(=O)O[C@H]1C[C@H]2CCC[C@@H](C1)N2Cc1ccc(N(C)C)cc1` [WC-II-26], for which the “σ1/σ2 Ratio” value at σ2 receptor worked out at 511. In addition, the inhibition constant (Ki) came out at 10.8 nM at σ2 receptor (setting [4]), 10.9 nM on σ2 receptor (setting [5]) and 5570 nM on σ1 receptor (Ki for σ1 (nM)). For the same compound, in the assay on EMT-6 cells [1] (40 μM, 48 h), the “percentage of EMT-6 cells” value is 96.6±2.7%. In addition, the “TUNEL positive cells (flow cytometry)” value with EMT-6 cells [2] (EMT-6, 40 μM, 48 h) amounted to 46%. For the same compound, the “DNA fragmentation, TUNEL staining” value in the assay with EMT-6 cells [2] was “positive TUNEL staining”. The “concentration at which the highest level” value in the assay with caspase-3/7 stood at 80 µM. Further, the EC50 was found to be 42.5 ± 3.5 µM in the assay on EMT-6 cells [3] (setting [6]) and 12.5 µM in the assay with EMT-6 cells [3] (setting [7]).
